The test system of data set [1] is Balb/3T3 cells. The data set can be described thus: Antiproliferative assay in vitro (SRB). It counts as cell-based, mouse. To be noted: read-out: Average IC50 ± SD, Balb/3T3 line. The method, then:
(§1) Antiproliferative tests were performed on a normal human breast cell line, MCF-10A, and a mouse embryonic fibroblast: Balb/3T3. Both cell lines were obtained from the American Type Culture Collection (Rockville, MD, USA). The cell lines were maintained in the Institute of Immunology and Experimental Therapy, Wroclaw, Poland. MCF-10A cells were cultured in the F-12 nutrient mixture (Gibco, Scotland, UK), supplemented with 5% horse serum (Gibco, Scotland, UK), […] (Vibrio cholerae Pacini), 10 μg/mL of hydrocortisone and 20 ng/mL of human epidermal growth factor (all from Sigma-Aldrich, Chemie GmbH, Steinheim, Germany). Balb/3T3 cells were cultured in Dulbecco medium (Gibco, Darmstadt, Germany) supplemented with 10% fetal bovine serum (Thermo Fisher Scientific, Waltham, MA, USA) and 2 mM l-glutamine (Sigma-Aldrich, St. Louis, MO, USA). All culture media contained antibiotics: 100 U/mL penicillin (Sigma-Aldrich, St. Louis, MO, USA) and 100 µg/mL streptomycin (Polfa-Tarchomin, Warsaw, Poland). Both cell lines were cultured during the entire experiment in a humid atmosphere at 37 °C and 5% CO2. Amistar 250 SC (fungicide) with active compound azoxystrobin was provided by the Institute of Soil Science and Plant Cultivation, National Research Institute in Pulawy, Department of Weed Science and Tillage Systems in Wroclaw, Poland […].
(§2) Twenty-four hours prior to the applications of the tested compounds, MCF-10A and Balb/3T3 cells were plated in 96-well plates at a density of 10^4 cells per well and cultured at 37 °C in a humid atmosphere saturated with 5% CO2 for 24 h. Stock solutions of the compounds were prepared ex tempore for each test by dissolving in DMSO. The cells were also exposed to the reference drugs: cis-platin (Accord, London, UK) (10–0.01 µg/mL) and DMSO (Sigma-Aldrich) (at the concentrations corresponding to those in the tested agent dilutions). The solutions were then diluted in culture medium RPMI 1640 + Opti-MEM (1:1) (both from Gibco, Scotland, UK), supplemented with 2 mM l-glutamine, 5% fetal bovine serum (all from Sigma-Aldrich Chemie GmbH, Steinheim, Germany). An assay was performed after 72 h of exposure to the tested compounds 13, 17, 18, 19, 25, 27, 30, 4-hba, 4-hbah, and 3,4,5-hba (0.5, 5.0, 50, and to 500 µM) and azoxystrobin fungicide (0.05, 0.5, 5.0 and 50 µM). The antiproliferative effect in vitro was determined by the SRB method (sulforhodamine B colorimetric assay). The optical densities of the samples were measured on the Synergy H4 photometer (BioTek Instruments, Winooski, VT, USA) at 540 nm. The results were calculated as 50% inhibitory concentration (IC50), namely the dose of the tested compound inhibiting proliferation of the tested cells by 50% as compared to the untreated control cells, in the Prolab-3 system based on Cheburator 0.4 software using the two-point method. Each test was repeated 3–5 times.
(§3) Cytotoxicity was performed on two normal cell lines: MCF -10A and Balb/3T3, using as controls cis-platin in the concentrations of 0.03 32, 0.3 32, 3.32 and 33.2 µM and azoxystrobin fungicide in the […]
(§4) were tested in the concentrations of 0.5, 5.0, 50, and 500 µM. The relation of compound concentration […]
(§5) Further, a comparison of the influence of each tested concentration in the group of tested compounds on cell lines was illustrated in Figure S130 a (MCF-10A) and b (Balb/T3T).
(§6) Table S4. Cytotoxicity results for compounds 13, 17, 18, 19, 25, 27, and 30 investigated on normal mammalian lines: MCF -10A and B alb/3T3 using Azoxystrobin (fungicide) and cis-platin as reference compounds.
(§7) Cytotoxicity profile presented as proliferation inhibition, % (y -axis) in the function of compound concentration, […]
(§8) Structure MCF-10A Balb/3T3
(§9) Proliferation inhibition [%] […]

For data set [2], the system named is MCF-10A cells. Nature of the data set: Antiproliferative assay in vitro (SRB). To be noted: read-out: Average IC50 ± SD, MCF-10A line. It counts as cell-based, human. The method, then: as §1, §2, §3, §4, §5, §6, §7, §8, §9
Data set [3] relates to S. sclerotiorum. To be noted: cited from earlier work.
Data set [4] deals with acetylcholinesterase (AChE). The arrangement: method as in PMID 33668452. To be noted: cited from earlier work.
For data set [5], the system named is B. cinerea. To be noted: cited from earlier work.
Data set [6] has as its target MPO (myeloperoxidase). On the set-up: method as in PMID 32278712. To be noted: cited from earlier work.
Data set [7] relates to Botrytis cinerea strain FBc05. The data set can be described thus: In vitro antifungal activity, mycelial growth inhibition on PDA medium. It counts as cell-based. To be noted: screening at basal 50 µg/mL, PDA medium, mean ± SD of three determinations; for inhibition of growth at 50 µg/mL: Botrytis cinerea, FBC05, read-out: fungal growth inhibition, B. cinerea. The protocol:
(§10) The cultures of Botrytis cinerea strain FBc05 and Sclerotinia sclerotiorum strain FSc10 were obtained from the collection of the Division of Plant Pathology and Mycology at the Department of Plant Protection of Wroclaw University of Environmental and Life Sciences (Poland). Cerrena unicolor (Bull.ex.Fr.) Murr, strain no. 139, originated from the culture collection of the Department of Biochemistry, University of Lublin (Poland). The stock cultures were maintained on potato dextrose agar at +4 °C and periodically transferred to a fresh medium.
(§11) Prior to the fungicidal activity assay of hydrazide–hydrazones 1–35, we considered ethanol and DMSO as potential dissolution media for tested compounds. […] Furthermore, a very important aspect of biological testing is the careful selection of organic solvents. These are typically used, e.g., methanol, ethanol, acetone, and DMSO, and may be highly toxic for microorganisms in even very low concentrations, such as 1% (v/v). Ethanol and DMSO with a final concentration between 0.1 and 1.0% (v/v) in a PDA medium were used and applied to evaluate the inhibition growth of B. cinerea, S. sclerotiorum, and C. unicolor (see Supplementary Materials). The following procedure was applied to the microorganism testing. The assays of fungi inhibition growth were performed at a basal concentration of 50 µg/mL for all compounds, and detailed experiments were extended for testing between 0 and 50 µg/mL (0, 6.25, 12.5, 25.0, and 50.0 µg/mL) for selected compounds. The tests were carried out on Petri dishes (diameter 60 mm) with PDA medium containing appropriate compound, co-solvent control, and hydrazide–hydrazone dissolved in co-solvent assay. A piece of mycelium with a 5 mm edge taken from the outer edge of the growing fungi on the PDA plate with co-solvent was transferred to a central part of the PDA plate with the examined compound. The plates thus inoculated were incubated at 22 °C in the dark for a time when the control plate containing only the co-solvent was covered entirely with the tested microorganism. For B. cinerea and S. sclerotiorum, the test took 3 days, and for C. unicolor, it took 7 days. Each assay was performed at least in triplicate. […] Model parameters c and e were estimated using the nonlinear least-squares method. Parameters d and b (with two exceptions) were fixed and assumed to be equal. Based on estimated parameters, the values of IC50 were determined. […] The IC50 values were calculated only in cases when the model predicted a decrease in growth rate by more than 50%.
(§12) In vitro antifungal activity
(§13) Prior to the fungicidal activity assay of hydrazide-hydrazones 1–35, we considered ethanol (EtOH) and DMSO as potential dissolution media for tested compounds.
(§14) EtOH and DMSO with a final concentration between 0.1–1.0% (v/v) in a PDA medium were applied to evaluate the inhibition growth of B. cinerea, S. sclerotiorum, and C. unicolor (see Table S3). The following procedure was applied to the microorganism testing with the hydrazide-hydrazones. The assays of fungi inhibition growth were performed at a basal concentration of 50 µg/mL for all compounds, and detailed experiments were extended for testing selected molecules 18, 19, 27, […]
(§15) Table S2. In vitro antifungal activity for DMSO and ethanol co-solvents.

In data set [8] the test system is Sclerotinia sclerotiorum strain FSc10. The description is as above. To be noted: screening at basal 50 µg/mL, PDA medium, mean ± SD of three determinations. Format: cell-based. The method, then: as §10, §11, §12, §13, §14, §15
Data set [9] concerns Cerrena unicolor strain no. 139. The data set is described as above. It counts as cell-based. To be noted: Cerrena unicolor, NO.139; screening at basal 50 µg/mL, PDA medium, mean ± SD of three determinations; read-out: fungal growth inhibition, C. unicolor. The method, then:
as §10, §11, §12, §13, §14, §15

Data set [10] has as its target laccase from Trametes versicolor. To be noted: read-out: Laccase inhibition, Ki; cited from earlier work.
For data set [11], the system named is Candida. The arrangement: method as in PMID 23142671. To be noted: cited from earlier work.

Molecules are shown by their SMILES. Read-outs that look alike come from different tables or passages of the source. Where only a bound is given, the exact number is not on record here.

Regarding `O=C(O)c1cc(O)c(O)c(O)c1` [3,4,5-hba, gallic acid, reference compound], the IC50 in data set [1] (Mus musculus, BALB/3T3, 72 h) was 163 ± 1.95 µM; in data set [2] (Homo sapiens, MCF-10A, 72 h) it was 174 ± 14.3 µM. On to `O=C(NN=Cc1cn(-c2ccccc2Cl)nn1)c1ccccc1` [((1-(2-chlorophenyl)-1H-1,2,3-triazol-4-yl)methylene)benzohydrazide], for which the “activity against S. sclerotiorum” value in data set [3] (25 µg/mL) is “inactive”. In the case of `COc1ccc(/C=N/NC(=O)c2cn(C)c3ccccc3c2=O)cc1OC` [(E)-N′-(3,4-dimethoxybenzylidene)-1-methyl-4-oxo-1,4-dihydroquinoline-3-carbohydrazide], the “S. sclerotiorum growth inhibition” value in data set [3] is given as “more than 80%”. Consider `Cn1cc(C(=O)N/N=C/c2cc3ccccc3[nH]2)c(=O)c2ccccc21` [(E)-N′-((1H-indol-2-yl)methylene)-1-methyl-4-oxo-1,4-dihydroquinoline-3-carbohydrazide], for which the “S. sclerotiorum growth inhibition” value in data set [3] is listed as “more than 80%”. With `CO/C=C(/C(=O)OC)c1ccccc1Oc1cc(Oc2ccccc2C#N)ncn1` [Azoxystrobin, reference compound], the IC50 in data set [1] (72 h exposure, SRB method) stood at 0.1 ± 0.03 µM. As for `N.N.[Cl][Pt][Cl]` [Cis-platin, reference compound], the IC50 came out at 9.8 ± 1.93 µM in data set [1] (72 h exposure, SRB method) and 9.27 ± 1.63 µM in data set [2] (72 h exposure, SRB method). Consider `O=C(N/N=C/c1ccccc1O)c1ccc(C(F)(F)F)cc1` [IX], for which, in data set [4], the BuChE/AChE selectivity is 18.6.

`CC1N[C@H](C(=O)NN=Cc2ccc(Cl)c(Cl)c2)Cc2c1[nH]c1ccccc21` (stereo partly drawn) [N′-(3,4-dichloro-benzylidene)-(3S)-1-methyl-2,3,4,9-tetrahydro-1H-pyrido[3,4-b]indole-3-carbohydrazide]: the “growth inhibition of S. sclerotiorum” value in data set [3] is on record as “more than 80%”. Moreover, the “growth inhibition of B. cinerea” value in [5] was “more than 80%”. Consider `CC1N[C@H](C(=O)NN=Cc2ccc(C(C)(C)C)cc2)Cc2c1[nH]c1ccccc21` (stereo partly drawn) [N′-(4-tert-butyl-benzylidene)-(3S)-1-methyl-2,3,4,9-tetra-hydro-1H-pyrido [3,4-b]indole-3-carbohydrazide], for which the “growth inhibition of S. sclerotiorum” value in data set [3] was “more than 80%”. In addition, in data set [5], the “growth inhibition of B. cinerea” value is “more than 80%”. Turning to `Cc1ccc(C(=O)ON=C2C=CC(=NNC(=O)c3ccccc3)C=C2)cc1` [N′-(4-{[(4-methylbenzoyl)oxy]imino}cyclohexa-2,5-dien-1-ylidene)benzohydrazide], the “restriction of mycelium growth, B. cinerea” value in data set [5] is 35%. As for `O=C(N/N=C/c1cc(O)ccc1O)c1ccncc1` [X], the IC50 in data set [6] was 4.8 µM.

`O=C(N/N=C/c1ccc(O)cc1O)c1ccccc1` [compound 22]: the melting point is 255 to 256 °C (dec.). In [7], the inhibition of growth at 50 µg/mL is 32 ± 2.9%. For the same compound, the “fungal growth inhibition, S. sclerotiorum” value in data set [8] was “n.o”. The inhibition of growth at 50 µg/mL in data set [9] was determined as 75.4 ± 6.2%. For the compound `O=C(N/N=C/c1cc(O)c(O)cc1O)c1ccc(O)cc1` [compound 23], the melting point was 253 °C (dec.). For the same compound, the inhibition of growth at 50 µg/mL in data set [7] came out at 6.8 ± 2.5%. The inhibition of growth at 50 µg/mL in [8] (Sclerotinia sclerotiorum, FSC10, read-out: fungal growth inhibition, S. sclerotiorum) was 2.7 ± 0.4%. Moreover, the inhibition of growth at 50 µg/mL in [9] is 5.8 ± 2.7%. `COc1cc(/C=N/NC(=O)c2ccc(O)cc2)c(O)c(CO)c1` [compound 26, 4-Hydroxy-N′-[(E)-(2-hydroxy-3-hydroxymethyl-5-methoxyphenyl)methylidene]benzohydrazide] came in with a melting point of 219 to 220 °C. The inhibition of growth at 50 µg/mL in data set [7] amounted to 3.2 ± 0.5%. Besides, in data set [8], the “fungal growth inhibition, S. sclerotiorum” value is reported as “n.o”. Besides, the inhibition of growth at 50 µg/mL in [9] was determined as 54.6 ± 3.1%. For `CC(=O)NN=Cc1cc(C)cc(C(C)(C)C)c1O` [compound 35], the “fungal growth inhibition, B. cinerea” value in data set [7] is “n.o”. Also, the “fungal growth inhibition, S. sclerotiorum” value in data set [8] is “n.o”. The inhibition of growth at 50 µg/mL in [9] is 45.7 ± 0.5%. Also, the Ki in data set [10] is at least 1000 µM. Consider `COc1ccc2c3c1O[C@H]1C[C@@H](O)C=C[C@@]31CCN(C)C2` [galantamine, reference compound], for which the BuChE/AChE selectivity in data set [4] is 1.8. On to `CC(=O)N1CCN(c2ccc(OCC3COC(Cn4ccnc4)(c4ccc(Cl)cc4Cl)O3)cc2)CC1` (stereo not drawn) [ketoconazole, reference compound], for which, in data set [11], the “MIC, anticandidal activity” value was 1 to 31 µg/mL.

One may read the melting point as the temperature of the solid-liquid transition. A word on the Ki: it is the dissociation constant of the complex between target and ligand, obtained from inhibition or displacement.

The values are drawn from publication PMC11124341, “4-Hydroxybenzoic Acid-Based Hydrazide–Hydrazones as Potent Growth Inhibition Agents of Laccase-Producing Phytopathogenic Fungi That Are Useful in the Protection of Oilseed Crops” (Molecules, 2024).
